Results from PMC6270099, “Synthesis, Biological Evaluation, and Pharmacokinetic Study of Novel Liguzinediol Prodrugs” (Molecules, 2013).

Assay: Metabolic stability and formation of parent compound in rat liver microsomes
Format: in vitro ADME
Conditions: NADPH, 37 °C, up to 3 h
Protocol: Analysis was performed by using a Waters Alliance HPLC system (2695 pump, and 2489 PDA detector) with the following chromatographic parameters: wavelength, 278 nm; injection volume, 20 μL; run time, 20 min. The chromatographic separation was performed on an Phecda C18 (4.6 mm × 250 mm, 5 μm) column with a gradient elution of methanol and deionized water. Flow rate was 1.0 mL/min at 30 °C.
Rat liver microsomes were prepared in house by a previously published method and used immediately in the experiments. Protein concentrations were determined by a Lowry protein assay.
Rat liver microsomes (2.0 mg/mL protein concentration), NADPH (1.0 mM solution, Sigma, Shanghai, China), Tris-HCl buffer (50 mM, pH 7.4, Sigma, Shanghai, China), test compound in aqueous solution (30 mM, 20 μL).
Tris-HCl buffer (780 μL), 1.0 mM NADPH solution (100 μL), and 100 μL of rat liver microsomes were mixed and vortexed at 37 °C for 5 min. To this mixture, 30 mM drug in aqueous solution (20 μL) was injected and vortexed well. Sample (100 μL) was immediately taken out (0 min) and transferred to the centrifuge tube containing ice cold dissolvent (ethanol-ethyl acetate = 1:4 v/v, 1 mL). […] The percentage of prodrug remaining was calculated according to the following equation: % remaining = peak area at respective time (min)/peak area at 0 min × 100% (2)

Cc1nc(CO)c(C)nc1CO [1a, Liguzinediol]
metabolic stability: fairly stable
